In patent publication US10829452B2, “Histone methyltransferase inhibitors” (GLOBAL BLOOD THERAPEUTICS, INC., priority 2016, dated 2020) one finds IC50 data, which are given here for 14 molecules.

The target of this test is T1, G9a (Homo sapiens, UniProt Q96KQ7).
T1 sequence (Q96KQ7 1-1210): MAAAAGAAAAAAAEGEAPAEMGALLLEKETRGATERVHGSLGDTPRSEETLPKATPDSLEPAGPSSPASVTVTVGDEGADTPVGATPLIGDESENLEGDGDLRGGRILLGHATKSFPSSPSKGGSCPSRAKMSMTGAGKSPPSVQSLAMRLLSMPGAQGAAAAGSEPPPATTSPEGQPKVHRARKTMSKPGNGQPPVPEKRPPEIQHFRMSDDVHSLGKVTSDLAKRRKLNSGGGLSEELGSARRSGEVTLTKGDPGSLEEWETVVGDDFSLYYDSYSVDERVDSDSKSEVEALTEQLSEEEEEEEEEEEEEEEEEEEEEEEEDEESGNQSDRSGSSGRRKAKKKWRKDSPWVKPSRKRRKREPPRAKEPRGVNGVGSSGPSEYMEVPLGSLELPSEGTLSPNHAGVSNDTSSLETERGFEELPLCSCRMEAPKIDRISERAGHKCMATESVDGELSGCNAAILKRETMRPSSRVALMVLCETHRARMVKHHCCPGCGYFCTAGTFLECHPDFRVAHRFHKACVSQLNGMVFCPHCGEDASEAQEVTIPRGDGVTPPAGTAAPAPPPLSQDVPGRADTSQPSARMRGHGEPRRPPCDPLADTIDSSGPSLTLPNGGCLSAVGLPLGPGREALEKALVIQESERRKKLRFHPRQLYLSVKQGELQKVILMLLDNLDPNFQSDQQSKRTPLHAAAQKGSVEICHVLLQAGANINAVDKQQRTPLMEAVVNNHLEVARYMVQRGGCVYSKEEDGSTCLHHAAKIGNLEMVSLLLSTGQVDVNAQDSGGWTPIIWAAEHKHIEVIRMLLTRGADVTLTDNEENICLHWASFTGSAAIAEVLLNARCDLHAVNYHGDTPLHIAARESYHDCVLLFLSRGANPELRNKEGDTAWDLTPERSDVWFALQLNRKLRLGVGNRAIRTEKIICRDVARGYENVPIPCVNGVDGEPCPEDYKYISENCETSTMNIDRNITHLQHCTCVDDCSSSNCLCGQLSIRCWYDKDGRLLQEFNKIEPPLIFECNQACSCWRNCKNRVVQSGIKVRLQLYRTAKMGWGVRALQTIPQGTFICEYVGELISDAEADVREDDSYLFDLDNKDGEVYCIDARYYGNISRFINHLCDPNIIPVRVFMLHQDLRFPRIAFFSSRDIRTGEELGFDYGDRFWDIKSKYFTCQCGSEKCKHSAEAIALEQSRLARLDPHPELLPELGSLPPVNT
Description: G9a AlphaLISA enzymatic activity assay. It counts as biochemical. To be noted: 0.15 nM G9a, 15 uM S-adenosyl-methionine, 100 nM biotinylated histone 3 peptide (1-21), 1 hour at room temperature; read-out: G9a in (uM) (IC50, concentration that produced 50% inhibition). An excerpt: The G9a AlphaLISA assay was used to detect the methyl modifications of a biotinylated histone H3 peptide by the compounds. These modifications are done by the histone methyl transferase activity of the G9a enzyme. The assay consists of reading a chemiluminescent signal at 615 nm; this signal is generated by a laser excitation at 680 nm that transfers a reactive singlet oxygen between the donor beads and acceptor beads. Donor beads are streptavidin conjugated and bind to the biotin on the peptide. Acceptor beads are conjugated with an antibody that recognizes the specific G9a methyl mark on the peptide. If there is a methyl mark on the peptide, the acceptor beads will bind to the peptide. Upon binding, the acceptor beads will be in close proximity (<200 nm) of the donor beads and when the donor beads are excited, the transfer of the oxygen can occur and a strong signal will be generated. If there is no methyl mark, the interaction between beads will not occur and signal will be at background levels.
For the assay, the following buffer was used to set up reactions: 50 mM Tris-HCl pH9, 50 mM NaCl, 0.01% Tween-20 and 1 mM DTT (added fresh prior to starting the reactions). The assay is set up by adding a final concentration of 0.15 nM G9a, 15 uM S-adenosyl-methionine and, 100 nM biotinylated histone 3 peptide (1-21). The reaction is incubated at room temperature for 1 hour, and subsequently quenched by the addition of the acceptor beads (anti-H3k9me2 AlphaLISA acceptor beads, PerkinElmer # AL117) at a final concentration of 20 ug/mL. The acceptor beads are incubated for 1 hour. After 1 hour, the donor beads are added at a final concentration of 20 ug/mL (Alpha Streptavidin donor beads, PerkinElmer #6760002). Donor beads are incubated for 0.5 hours. Both donor and acceptor beads are resuspended in AlphaLISA 5X Epigenetics Buffer 1 Kit (PerkinElmer # AL008) prior to addition to the reaction. All manipulations and incubations with the donor and acceptor beads are done in subdued light. Signal is detected in an EnVision plate reader in Alpha mode (see ACS Med Chem Lett. 2014 Jan. 2; 5(2):205-9. doi: 10.1021/m1400496h. eCollection 2014. Discovery and development of potent and selective inhibitors of histone methyltransferase g9a.)
Percent inhibition was calculated for each compound dilution and the concentration that produced 50% inhibition was calculated. This value is presented as the IC50.

Structures can show the parent of a compound that is named as a salt.

As to `CNc1nc2cc(OCCCN3CCCC3)c(OC)cc2c2c1CCN2` [Example 22, 8-methoxy-N-methyl-7-[3-(pyrrolidin-1-yl)propoxy]-1H,2H,3H-pyrrolo[3,2-c]quinolin-4-amine trifluoroacetate], the IC50 worked out at 0.003 µM. For `COc1cc2c3c(c(NC(C)C)nc2cc1OCCCN1CCCC1)CCN3` [Example 23, 8-methoxy-N-(propan-2-yl)-7-[3-(pyrrolidin-1-yl)propoxy]-1H,2H,3H-pyrrolo[3,2c]-quinolin-4-amine trifluoroacetate] the value was 0.003 µM. With `CNc1nc2cc(OCCCN3CCCC3)c(OC)cc2c2c1CC(C)(C)N2` [Example 24, 8-methoxy-N,2,2-trimethyl-7-[3-(pyrrolidin-1-yl)propoxy]-1H,2H,3H-pyrrolo[3,2-c]quinolin-4-amine trifluoroacetate], the IC50 worked out at 0.006 µM. Consider `COc1cc2c3c(c(NC(C)C)nc2cc1OCCCN1CCCC1)CC(C)(C)N3` [Example 25, 8-methoxy-2,2-dimethyl-N-(propan-2-yl)-7-[3-(pyrrolidin-1-yl)propoxy]-1H,2H,3H-pyrrolo[3,2-c]quinolin-4-amine trifluoroacetate], for which the IC50 was 0.005 µM. Regarding `CNc1nc2cc(OCCCN3CCCC3)c(OC)cc2c2c1CCCN2` [Example 26, 9-methoxy-N-methyl-8-[3-(pyrrolidin-1-yl)propoxy]-1H,2H,3H,4H-benzo[h]1,6-naphthyridin-5-amine formate], the IC50 stood at 0.004 µM. Regarding `COc1cc2c3c(c(NC(C)C)nc2cc1OCCCN1CCCC1)CCCN3` [Example 27, 9-methoxy-N-(propan-2-yl)-8-[3-(pyrrolidin-1-yl)propoxy]-1H,2H,3H,4H-benzo[h]1,6-naphthyridin-5-amine trifluoroacetate], the IC50 is 0.006 µM. Next, `COc1cc2c3c(c(C)nc2cc1OCCCN1CCCC1)CCCN3` [Example 28, 1-[3-({9-methoxy-5-methyl-1H,2H,3H,4H-benzo[h]1,6-naphthyridin-8-yl}oxy)propyl]pyrrolidine trifluoroacetate]: 0.006 µM; `CNc1nc2cc(OCCCN3CCCC3)c(OC)cc2c2c1CCC(C)N2` (centres unmarked) [Example 29, 9-methoxy-N,2-dimethyl-8-[3-(pyrrolidin-1-yl)propoxy]-1H,2H,3H,4H-benzo[h]1,6-naphthyridin-5-amine formate]: 0.009 µM; `COc1cc2c3c(c(NC(C)C)nc2cc1OCCCN1CCCC1)CCC(C)N3` (centres unmarked) [Example 30, 9-methoxy-2-methyl-N-(propan-2-yl)-8-[3-(pyrrolidin-1-yl)propoxy]-1H,2H,3H,4H-benzo[h]1,6-naphthyridin-5-amine formate]: 0.008 µM.

Consider `COc1cc2c3c(c(C)nc2cc1OCCCN1CCCC1)CCC(C)N3` (centres unmarked) [Example 31, 1-[3-({9-methoxy-2,5-dimethyl-1H,2H,3H,4H-benzo[h]1,6-naphthyridin-8-yl}oxy)propyl]pyrrolidine trifluoroacetate], for which the IC50 amounted to 0.009 µM. Regarding `COc1cc2c3c(c(C4CC4)nc2cc1OCCCN1CCCC1)CCC(C)N3` (centres unmarked) [Example 32, 1-[3-({5-cyclopropyl-9-methoxy-2-methyl-1H,2H,3H,4H-benzo[h]1,6-naphthyridin-8-yl}oxy)propyl]pyrrolidine trifluoroacetate], the IC50 was 0.022 µM. For `CNc1nc2cc(OCCCN3CCCC3)c(OC)cc2c2c1CCCCN2` [Example 33, 10-methoxy-N-methyl-9-[3-(pyrrolidin-1-yl)propoxy]-1H,2H,3H,4H,5H-azepino[3,2-c]quinolin-6-amine formate] the value was 0.012 µM; for `COc1cc2c3c(c(NC(C)C)nc2cc1OCCCN1CCCC1)CCCCN3` [Example 34, 10-methoxy-N-(propan-2-yl)-9-[3-(pyrrolidin-1-yl)propoxy]-1H,2H,3H,4H,5H-azepino[3,2-c]quinolin-6-amine formate], 0.01 µM; for `COc1cc2c3c(cnc2cc1OCCCN1CCCC1)CC(C)(C)N3` [Example 35, 1-[3-({8-methoxy-2,2-dimethyl-1H,2H,3H-pyrrolo[3,2-c]quinolin-7-yl}oxy)propyl]pyrrolidine formate], 0.012 µM.
